Patent publication US9718861B2 (Universitaet Leipzig, priority 2011, dated 2017)
Like-named read-outs stand apart in the source and are kept apart here. Where a SMILES comes first, the peptide text is derived from it. Where no end group is shown, it is not given here. [ ]: non-standard residue; d: D form. d1Nal = N[C@H](Cc1cccc2ccccc12)C(=O)O; Cha = N[C@@H](CC1CCCCC1)C(=O)O; Phg = N[C@H](C(=O)O)c1ccccc1; Nva = CCC[C@H](N)C(=O)O

Tests used:
[1] = molecular target: T1, ghrelin receptor (Homo sapiens, UniProt Q92847); conditions: background, cited from earlier work
Target sequence in this assay (Q92847 whole entry, species assumed): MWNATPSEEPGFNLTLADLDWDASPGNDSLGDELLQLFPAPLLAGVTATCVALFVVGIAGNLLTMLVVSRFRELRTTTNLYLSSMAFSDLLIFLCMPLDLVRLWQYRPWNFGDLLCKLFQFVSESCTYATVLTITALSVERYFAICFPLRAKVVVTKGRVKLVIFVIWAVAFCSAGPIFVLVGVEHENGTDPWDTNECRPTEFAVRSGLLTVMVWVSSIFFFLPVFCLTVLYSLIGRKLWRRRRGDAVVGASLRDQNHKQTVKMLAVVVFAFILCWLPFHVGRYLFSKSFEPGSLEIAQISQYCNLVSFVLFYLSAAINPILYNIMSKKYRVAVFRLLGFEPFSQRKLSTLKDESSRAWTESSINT

[2] = test system: rats; assay: ICV administration to rats, food intake; format: in vivo; conditions: 1 nmol/rat, n=6, vs vehicle 0.9% saline with DMSO
From the text: For in vivo studies, peptide 3 was delivered intracerebroventricularly. The rats were stereotaxically implanted with a stainless steel cannula (Holm Finmekanik AS, Copenhagen, Denmark) aimed at the right lateral ventricle 1 mm caudal and 1.5 mm lateral to bregma and 4 mm ventral to cranium externa. Rats were left to recover in the metabolic cages (MANI Feed Win, Ellegaard Systems) for adaptation for at least 5 days, only interrupted by daily handling and body weight measurements. With these cages we could accurately measure the food and water intake of rats for up to 48 hours. The powdered diet used eliminated food hoarding and spill. Cannula placement was confirmed by measuring the drinking response to angiotensin injection (100 nmol/rat). Administration of peptide was done with 1 nmol/rat (n=6). As a negative control, a vehicle solution of 0.9% saline with DMSO (n=7) was used.

[3] = molecular target: T1, ghrelin receptor; assay: Inositol trisphosphate turnover assay in COS-7 cells transfected with the ghrelin receptor; format: cell-based; parameters: expressed in transfected cells; conditions: for Emax: COS-7; for Emax ± SEM: efficacy; for EC50: mean ± SEM of n experiments
Target sequence in this assay (Q92847 whole entry): as the sequence (Q92847 whole entry, species assumed) above
Description: COS-7 cells were grown in a humidified atmosphere at 37° C. and 5% CO2 in Dulbecco's modified Eagle's medium with higher glucose supplemented with 10% (v/v) FCS and 1% (v/v) penicillin/streptomycin. COS-7 cells were seeded out in 24-well plates (80.000-100.000 cells/well) in DMEM with 10% FCS. […] Each well was treated with 0.3 μg DNA and 0.9 μl metafectene.
The day after transfection, or the day after seeding for stable cells, cells were incubated with myo-[2-^3H]-inositol (2 μCi/ml) for 18 h and washed with DMEM/LiCl. Stimulation was then carried out with seven to nine different peptide concentrations in DMEM containing 10 mM LiCl, for 2 h, in duplicates. Stimulation was stopped by aspirating the medium and subsequently, cells were lysed with 150 μl of 0.1M NaOH for 5 min at RT. 50 μl of 0.2M HCOOH were added and the solution was diluted using 1 ml dilution buffer. […] Obtained data was analyzed with GraphPad Prism 3.0 (GraphPad Software). Therefore, dpm values are assigned to the corresponding peptide concentrations. Non-linear regression was used to obtain sigmoidal curves. For better comparability, dpm values were normalized to the constitutive activity. Constitutive activity of 100% represents the basal activity, the activity of the receptor without the influence of peptides. Emax is the efficacy of the peptide and represents the difference between constitutive activity and activity at maximal effect of the peptide. EC50 is the peptide concentration at half-maximal effect.

[4] = molecular target: T1, ghrelin receptor; conditions: background; cited from earlier work
Target sequence in this assay (Q92847 whole entry, species assumed): as above

[5] = inverse agonistic activity, read-out: efficacy (Emax)
[6] = inverse agonistic activity, difference to constitutive activity (Table 2)
[7] = shift in efficacy compared to KwFwLL-NH2, inverse agonistic activity
[8] = shift in potency compared to KwFwLL-NH2, inverse agonistic activity
[9] = agonistic activity, read-out: Emax
[10] = agonistic activity, ghrelin and analogs KwFxLL-NH2 (Table 3)
[11] = agonistic activity, difference to constitutive activity (Table 3)
[12] = shift in efficacy compared to ghrelin, agonistic activity
[13] = shift in potency compared to ghrelin, agonistic activity
[14] = inverse agonistic activity, analogs KxFwLL-NH2 (Table 2)
[15] = inverse agonistic activity, analogs K-(D-1-Nal)-xwLL-NH2 (Table 5)
[16] = shift of efficacy compared to K-(D-1-Nal)-FwLL-NH2, inverse agonistic activity
[17] = shift of potency compared to K-(D-1-Nal)-FwLL-NH2, inverse agonistic activity

wFwLL-NH2 ([dW]F[dW]LL-NH2; N-terminus assumed; SMILES CC(C)C[C@H](NC(=O)[C@H](CC(C)C)NC(=O)[C@@H](Cc1c[nH]c2ccccc12)NC(=O)[C@H](Cc1ccccc1)NC(=O)[C@H](N)Cc1c[nH]c2ccccc12)C(N)=O)
IC50 ([1]; reference 17, read-out: IC50 (receptor binding)): 530 ± 230 nM

CC(C)C[C@H](NC(=O)[C@H](CC(C)C)NC(=O)[C@@H](Cc1c[nH]c2ccccc12)NC(=O)[C@H](Cc1ccccc1)NC(=O)[C@@H](Cc1cccc2ccccc12)NC(=O)[C@@H](N)CCCCN)C(N)=O [Peptide 3, K-(D-1-Nal)-FwLL-NH2]
decrease of food intake compared to vehicle [2]: ~5 fold

CC(C)C[C@H](NC(=O)[C@H](CC(C)C)NC(=O)[C@H](NC(=O)[C@H](Cc1ccccc1)NC(=O)[C@@H](Cc1c[nH]c2ccccc12)NC(=O)[C@@H](N)CCCCN)C(c1ccccc1)c1ccccc1)C(N)=O [Peptide 16, KwF-(D-Dip)-LL-NH2]
activity at the ghrelin receptor (in words) [3]: no activity

CC(C)C[C@H](NC(=O)[C@H](CC(C)C)NC(=O)[C@@H](Cc1cccc2ccccc12)NC(=O)[C@H](Cc1ccccc1)NC(=O)[C@@H](Cc1cccc2ccccc12)NC(=O)[C@@H](N)CCCCN)C(N)=O [Peptide 18, K-(D-1-Nal)-F-(D-1-Nal)-LL-NH2]
activity at the ghrelin receptor (in words) [3]: totally suppressed activity

CC(C)C[C@H](NC(=O)[C@H](CC(C)C)NC(=O)[C@@H](Cc1c[nH]c2ccccc12)NC(=O)[C@H](Cc1ccccc1)NC(=O)[C@@H](Cc1ccc(-c2ccccc2)cc1)NC(=O)[C@@H](N)CCCCN)C(N)=O [Peptide 8, K-(D-Bip)-FwLL-NH2]
activity at the ghrelin receptor (in words) [3]: moderate activity | Emax [3, 5]: > 80% | Emax ± SEM [3, 6]: 82 ± 0 Δ % | x-fold (Emax) [3, 7]: 2.2 x-fold | x-fold (EC50) [3, 8]: 4.03 x-fold

CC(C)C[C@H](NC(=O)[C@H](CC(C)C)NC(=O)[C@@H](Cc1ccc(C(=O)c2ccccc2)cc1)NC(=O)[C@H](Cc1ccccc1)NC(=O)[C@@H](Cc1c[nH]c2ccccc12)NC(=O)[C@@H](N)CCCCN)C(N)=O [Peptide 15, KwF-(D-Bpa)-LL-NH2]
activity at the ghrelin receptor (in words) [3]: no activity

CC(C)C[C@H](NC(=O)[C@H](CC(C)C)NC(=O)[C@@H](Cc1cccc2ccccc12)NC(=O)[C@H](Cc1ccccc1)NC(=O)[C@@H](Cc1c[nH]c2ccccc12)NC(=O)[C@@H](N)CCCCN)C(N)=O [Peptide 12, KwF-(D-1-Nal)-LL-NH2]
Emax [3, 9]: 54% | EC50 [3, 10]: 17.9 nM | Emax ± SEM [3, 11]: 54 ± 10 Δ % | x-fold (Emax) [3, 12]: 0.3 x-fold | x-fold (EC50) [3, 13]: 12.8 x-fold

CC(C)C[C@H](NC(=O)[C@H](CC(C)C)NC(=O)[C@@H](Cc1c[nH]c2ccccc12)NC(=O)[C@H](Cc1ccccc1)NC(=O)[C@@H](Cc1c[nH]c2ccccc12)NC(=O)[C@@H](N)CCCCN)C(N)=O [Peptide 2, KwFwLL-NH2, reference compound]
Emax [3, 5]: 37% | Emax ± SEM [3, 6]: 37 ± 5 Δ % | EC50 [3, 14]: 45.6 nM | x-fold (Emax) [3, 7]: 1 x-fold | x-fold (EC50) [3, 8]: 1 x-fold

fQwFwLL-NH2
decrease of affinity in comparison to full-length modified substance P [1]: 5.3 fold | decrease of activity in comparison to full-length modified substance P [4]: 1.6 fold

CC(C)C[C@H](NC(=O)[C@H](CC(C)C)NC(=O)[C@@H](Cc1c[nH]c2ccccc12)NC(=O)[C@H](Cc1ccccc1)NC(=O)[C@H](NC(=O)[C@@H](N)CCCCN)C(c1ccccc1)c1ccccc1)C(N)=O [Peptide 5, K-(D-Dip)-FwLL-NH2]
Emax [3, 5]: > 80% | Emax ± SEM [3, 6]: 87 ± 2 Δ % | increase in activity compared with peptide 2 (KwFwLL-NH2) ([3]; inverse agonistic activity): 3.5 fold | x-fold (Emax) [3, 7]: 2.4 x-fold | x-fold (EC50) [3, 8]: 0.29 x-fold

CC(C)C[C@H](NC(=O)[C@H](CC(C)C)NC(=O)[C@@H](Cc1c[nH]c2ccccc12)NC(=O)[C@H](Cc1ccccc1)NC(=O)[C@@H](Cc1ccccc1)NC(=O)[C@@H](N)CCCCN)C(N)=O [Peptide 9, K-(D-Phe)-FwLL-NH2]
activity at the ghrelin receptor (in words) [3]: moderate activity | Emax ± SEM [3, 6]: 62 ± 4 Δ % | EC50 [3, 14]: 241 nM | x-fold (Emax) [3, 7]: 1.7 x-fold | x-fold (EC50) [3, 8]: 5.28 x-fold

CCC[C@H](NC(=O)[C@@H](Cc1cccc2ccccc12)NC(=O)[C@@H](N)CCCCN)C(=O)N[C@H](Cc1c[nH]c2ccccc12)C(=O)N[C@@H](CC(C)C)C(=O)N[C@@H](CC(C)C)C(N)=O [Peptide 24, K-(D-1-Nal)-(L-Nva)-wLL-NH2] (H-K[d1Nal][Nva][dW]LL-NH2)
Emax ± SEM [3, 15]: 71 ± 4 Δ % | x-fold (Emax) [3, 16]: 1.1 x-fold | x-fold (EC50) [3, 17]: 146.5 x-fold

CC(C)C[C@H](NC(=O)[C@H](CC(C)C)NC(=O)[C@@H](Cc1c[nH]c2ccccc12)NC(=O)[C@H](Cc1ccc(C(C)(C)C)cc1)NC(=O)[C@@H](Cc1cccc2ccccc12)NC(=O)[C@@H](N)CCCCN)C(N)=O [Peptide 22, K-(D-1-Nal)-(L-tBf)-wLL-NH2]
Emax [3, 5]: 84% | Emax ± SEM [3, 15]: 84 ± 3 Δ % | x-fold (Emax) [3, 16]: 1.3 x-fold | x-fold (EC50) [3, 17]: 36.5 x-fold

CC(C)C[C@H](NC(=O)[C@H](CC(C)C)NC(=O)[C@@H](Cc1c[nH]c2ccccc12)NC(=O)[C@H](Cc1ccccc1)NC(=O)[C@@H](Cc1ccc(C(=O)c2ccccc2)cc1)NC(=O)[C@@H](N)CCCCN)C(N)=O [Peptide 7, K-(D-Bpa)-FwLL-NH2]
activity at the ghrelin receptor (in words) [3]: moderate activity | Emax ± SEM [3, 6]: 67 ± 7 Δ % | x-fold (Emax) [3, 7]: 1.8 x-fold | x-fold (EC50) [3, 8]: 3.70 x-fold

CC(C)C[C@H](NC(=O)[C@H](CC(C)C)NC(=O)[C@@H](Cc1c[nH]c2ccccc12)NC(=O)[C@@H](NC(=O)[C@@H](Cc1cccc2ccccc12)NC(=O)[C@@H](N)CCCCN)c1ccccc1)C(N)=O [Peptide 25, K-(D-1-Nal)-(L-Phg)-wLL-NH2] (H-K[d1Nal][Phg][dW]LL-NH2; N-terminus assumed)
x-fold (EC50) [3, 17]: >290 x-fold

CC(C)C[C@H](NC(=O)[C@H](CC(C)C)NC(=O)[C@@H](Cc1c[nH]c2ccccc12)NC(=O)[C@H](Cc1ccccc1)NC(=O)[C@@H](Cc1ccc2ccccc2c1)NC(=O)[C@@H](N)CCCCN)C(N)=O [Peptide 6, K-(D-2-Nal)-FwLL-NH2]
activity at the ghrelin receptor (in words) [3]: moderate activity | Emax ± SEM [3, 6]: 66 ± 4 Δ % | EC50 [3, 14]: 161 nM | x-fold (Emax) [3, 7]: 1.8 x-fold | x-fold (EC50) [3, 8]: 3.54 x-fold

CC(C)C[C@H](NC(=O)[C@H](CC(C)C)NC(=O)[C@@H](Cc1csc2ccccc12)NC(=O)[C@H](Cc1ccccc1)NC(=O)[C@@H](Cc1cccc2ccccc12)NC(=O)[C@@H](N)CCCCN)C(N)=O [Peptide 19, K-(D-1-Nal)-F-(D-Bth)-LL-NH2]
Emax [3, 5]: 40% | Emax ± SEM ([3]; inverse agonistic activity, analogs KxFxLL-NH2 (Table 4)): 40 ± 2 Δ %

CC(C)C[C@H](NC(=O)[C@H](CC(C)C)NC(=O)[C@@H](Cc1ccc(-c2ccccc2)cc1)NC(=O)[C@H](Cc1ccccc1)NC(=O)[C@@H](Cc1c[nH]c2ccccc12)NC(=O)[C@@H](N)CCCCN)C(N)=O [Peptide 14, KwF-(D-Bip)-LL-NH2]
activity at the ghrelin receptor (in words) [3]: no activity

CC(C)C[C@H](NC(=O)[C@H](CC(C)C)NC(=O)[C@@H](Cc1ccc2ccccc2c1)NC(=O)[C@H](Cc1ccccc1)NC(=O)[C@@H](Cc1c[nH]c2ccccc12)NC(=O)[C@@H](N)CCCCN)C(N)=O [Peptide 13, KwF-(D-2-Nal)-LL-NH2]
Emax [3, 9]: 156% | EC50 [3, 10]: 12.6 nM | percent of ghrelin efficacy ([3]; agonistic activity, relative to ghrelin): 96% | Emax ± SEM [3, 11]: 156 ± 22 Δ % | x-fold (Emax) [3, 12]: 1 x-fold | x-fold (EC50) [3, 13]: 9.00 x-fold

CC(C)C[C@H](NC(=O)[C@H](CC(C)C)NC(=O)[C@@H](Cc1c[nH]c2ccccc12)NC(=O)[C@H](CC1CCCCC1)NC(=O)[C@@H](Cc1cccc2ccccc12)NC(=O)[C@@H](N)CCCCN)C(N)=O [Peptide 21, K-(D-1-Nal)-(Cha)-wLL-NH2] (H-K[d1Nal][Cha][dW]LL-NH2)
Emax ± SEM [3, 15]: 85 ± 3 Δ % | x-fold (Emax) [3, 16]: 1.3 x-fold | x-fold (EC50) [3, 17]: 28.5 x-fold
